This is an account of results in patent US20160198705A1, “APPLICATION OF BISPHENOL SALT IN PREPARING DISINFECTANT USED FOR STERILIZATION OR FORMALDEHYDE REMOVAL” (NINGBO YUCHEN ENVIROCLEAN TECH CO., LTD., priority 2013, published 2016).

In assay [1] the test system is Staphylococcus aureus. The assay can be described thus: Kirby-Bauer diffusion detection of sterilization capability (zone without bacterial growth around the filter paper). To be noted: for sterilization effect without oxygen ventilation (diameter, mm): pH 10, no ventilation of oxygen. The class given is cell-based.
In assay [2] the test system is Staphylococcus aureus. The description is as above. The class given is cell-based. The protocol:
In catalyst screening, Staphylococcus aureus was used as the microorganisms, and a trypsin soybean agar was used as a culture medium. The material powder to be screened was prepared into a homogeneous mixture solution by pure water in a 5% weight/volume ratio (i.e., 5 g powder/100 mL water) (in rare cases of low solubility, firstly dissolved with a small amount of glycerol, then diluted with pure water), then immersed with a neutral precise filtration filter paper of 5 mm diameter for about 10 seconds, then placed into a Kirby-Bauer diffusion detection plate. A Kirby-Bauer diffusion detection plate was placed in a sealed glass cover, and the air was provided into the glass cover at a speed of about 10 liters per minute. The sterilizing capability of the catalyst was measured by the diameter of the zone without bacterial growth around the filter paper.
A variety of bisphenol salts were respectively prepared into a water solution with a mass concentration being 5%, and the pH was controlled to 10. The sterilization capability was still detected by Kirby-Bauer diffusion detection method in which Staphylococcus aureus was […] used as the microorganisms, respectively including two cases of no ventilation of oxygen and ventilation of oxygen. When oxygen was ventilated, the condition for oxygen ventilation was the same, the temperature was room temperature (25[…]) and 37[…].
The sterilization capability was detected by Kirby-Bauer diffusion detection method in which Staphylococcus aureus was still used as the microorganisms, and the condition for oxygen ventilation was identical, the temperature was room temperature (25[…]) and 37[…].
Ortho-bisphenol potassium was respectively prepared to form water solutions with a concentration of 5% and pH value of 6, 7, 8, 8.5, 9, 9.5, 10, 10.5, 11, 11.5, 12. The sterilization capability was detected by Kirby-Bauer diffusion detection method in which Staphylococcus aureus was still used as the microorganisms, the condition for oxygen ventilation was identical, the temperature was room temperature (25[…]) and 37[…].

The mark [3] stands for this setting: 5% water solution, pH 10, oxygen ventilation.
Where [4] appears, read: 5% weight/volume in pure water, air provided at about 10 liters per minute.
The mark [5] stands for this setting: concentration 0.5%, pH 10, oxygen ventilation.
The mark [6] stands for this setting: concentration 1.0%, pH 10, oxygen ventilation.
The mark [7] stands for this setting: concentration 2.0%, pH 10, oxygen ventilation.
Setting [8] is: concentration 5%, pH 10, oxygen ventilation.
The mark [9] stands for this setting: concentration 10%, pH 10, oxygen ventilation.
Setting [10] is: concentration 15%, pH 10, oxygen ventilation.
Setting [11] is: concentration 20%, pH 10, oxygen ventilation.
The mark [12] stands for this setting: pH 6, concentration 5%, oxygen ventilation.
Setting [13] is: pH 7, concentration 5%, oxygen ventilation.
Setting [14] is: pH 8, concentration 5%, oxygen ventilation.
Setting [15] is: pH 8.5, concentration 5%, oxygen ventilation.
Where [16] appears, read: pH 9, concentration 5%, oxygen ventilation.
Setting [17] is: pH 9.5, concentration 5%, oxygen ventilation.
The mark [18] stands for this setting: pH 10.5, concentration 5%, oxygen ventilation.
Setting [19] is: pH 11, concentration 5%, oxygen ventilation.
[20] abbreviates: pH 11.5, concentration 5%, oxygen ventilation.
Setting [21] is: pH 12, concentration 5%, oxygen ventilation.
Setting [22] is: pH 10, concentration 5%, oxygen ventilation.

`[K+].[K+].[O-]c1cccc(-c2cccc([O-])c2)c1`: the “sterilization effect without oxygen ventilation (diameter, mm)” value in assay [1] (5% water solution) stood at 2 mm. In addition, in assay [1] (setting [3]), the “sterilization effect at 25[…] (diameter, mm)” value is 20 mm and the “sterilization effect at 37[…] (diameter, mm)” value turned out to be 19 mm.

Take `O=C(O)c1ccc(-c2ccccc2[O-])c([O-])c1.[K+].[K+]`: the “sterilization effect without oxygen ventilation (diameter, mm)” value in assay [1] (5% water solution) amounted to 2 mm. Besides, in assay [1] (setting [3]), the “sterilization effect at 25[…] (diameter, mm)” value came to 19 mm and the “sterilization effect at 37[…] (diameter, mm)” value is reported as 19 mm.

Regarding `[K+].[K+].[O-]c1ccccc1-c1cc(Cl)ccc1[O-]`, the “sterilization effect without oxygen ventilation (diameter, mm)” value in assay [1] (5% water solution) is reported as 3 mm. Also, in assay [1] (setting [3]), the “sterilization effect at 25[…] (diameter, mm)” value stood at 19 mm and the “sterilization effect at 37[…] (diameter, mm)” value turned out to be 19 mm.

`[Na+].[Na+].[O-]c1ccccc1Oc1ccccc1[O-]`: the “sterilization effect without oxygen ventilation (diameter, mm)” value in assay [1] (5% water solution) came out at 5 mm. Also, in assay [1] (setting [3]), the “sterilization effect at 25[…] (diameter, mm)” value came to 17 mm and the “sterilization effect at 37[…] (diameter, mm)” value is recorded as 19 mm.

For `[K+].[K+].[O-]c1cccc(Oc2cccc([O-])c2)c1`, the “sterilization effect without oxygen ventilation (diameter, mm)” value in assay [1] (5% water solution) stood at 6 mm. Further, in assay [1] (setting [3]), the “sterilization effect at 25[…] (diameter, mm)” value came out at 16 mm and the “sterilization effect at 37[…] (diameter, mm)” value was determined as 18 mm.

In assay [1] (setting [4]), `[Na+].[Na+].[O-]c1ccccc1-c1ccccc1[O-]` [2,2′-ortho-bisphenol sodium] displayed an inhibition zone diameter of 15 mm.

Regarding `[K+].[K+].[O-]c1ccccc1-c1ccccc1[O-]` [ortho-bisphenol potassium], the “sterilization effect without oxygen ventilation (diameter, mm)” value in assay [1] (5% water solution) is on record as 3 mm. Also, the “sterilization effect at 25[…] (diameter, mm)” value was determined as 18 mm in assay [1] (setting [3]); 8 mm in assay [1] (setting [5]); 14 mm in assay [1] (setting [7]); 18 mm in assay [1] (setting [8]); 19 mm in assay [1] (setting [10]); 17 mm in assay [1] (setting [11]). For the same compound, the “sterilization effect at 25[…] (diameter, mm)” value was determined as 5 mm in assay [1] (setting [13]); 8 mm in assay [1] (setting [14]); 13 mm in assay [1] (setting [15]); 16 mm in assay [1] (setting [17]); 18 mm in assay [1] (setting [18]); 18 mm in assay [1] (setting [19]). The “sterilization effect at 25[…] (diameter, mm)” value in assay [1] (setting [20]) came to 20 mm; in assay [1] (setting [21]), 20 mm; in assay [2] (setting [6]), 11 mm; in assay [2] (setting [9]) it was 20 mm; in assay [2] (setting [12]), 5 mm; in assay [2] (setting [16]) it was 15 mm. The “sterilization effect at 25[…] (diameter, mm)” value in assay [2] (setting [22]) is recorded as 19 mm. Further, the “sterilization effect at 37[…] (diameter, mm)” value in assay [1] (setting [3]) came out at 19 mm; in assay [1] (setting [5]) it was 9 mm; in assay [1] (setting [6]), 10 mm; in assay [1] (setting [7]), 16 mm; in assay [1] (setting [9]) it was 20 mm; in assay [1] (setting [10]) it was 18 mm. The “sterilization effect at 37[…] (diameter, mm)” value in assay [1] (setting [11]) was 19 mm; in assay [1] (setting [12]) it was 5 mm; in assay [1] (setting [13]), 6 mm; in assay [1] (setting [14]), 9 mm; in assay [1] (setting [16]), 16 mm; in assay [1] (setting [17]) it was 16 mm. The “sterilization effect at 37[…] (diameter, mm)” value in assay [1] (setting [18]) turned out to be 20 mm; in assay [1] (setting [19]) it was 19 mm; in assay [1] (setting [20]), 19 mm; in assay [1] (setting [21]), 20 mm; in assay [2] (setting [8]), 19 mm; in assay [2] (setting [15]), 14 mm. Further, the “sterilization effect at 37[…] (diameter, mm)” value in assay [2] (setting [22]) is recorded as 20 mm.

Take `[Cl-].[Na+]` [sodium chloride, reference compound]: the sterilization effect entry in assay [1] (setting [4]) is given as “essentially had no effect”.

`O=S(=O)([O-])[O-].[Na+].[Na+]` [sulfate sodium, reference compound]: in assay [1] (setting [4]), the sterilization effect entry is “essentially had no effect”.
